Patent US20240207454A1, “NEURO-BEHAVIORAL ASSAY FOR PHYSIOLOGICAL EVALUATION OF WATER-SOLUBLE ANESTHETICS” (Northeastern University, priority 2022, published 2024)
Values joined by “and” are separate entries in the source; they are usually repeats but may differ in a detail not shown here. Identical values can stand only once.

Test system: Apteronotus leptorhynchus
Assay: Neuro-behavioral assay: chirps (EOD modulations)
Type: in vivo
Details: for Number of chirps during the 30 min immediately following anesthesia (mean) / Number of chirps during the 30 min immediately following anesthesia (median) / Number of chirps during the 30 min immediately following anesthesia (range among fish): 2.5% urethane or 0.02% MS-222, n=8 fish
From the text: Previous research has shown that transient modulations of the EOD may occur, both spontaneously and through stimulation with electric signal mimicking the EOD of a conspecific. These modulations are brief (several tens of milliseconds) and involve frequency increases. They are commonly referred to as ‘chirps.’
To identify chirp instances, the time-frequency data {(Tk, fk)}k=q^q+n^wind, q=1, . . . , M−nwind−1, was considered in a moving time window containing nwind+1 samples. The first and last nmed samples in each window are used to establish the instantaneous base frequency before chirping:
to the data set {(ξp,q, ϕp,q)}p=0^n^wind for each q=1, 2, . . . time window. This curve fitting was carried out over a fixed search range α∈[αmin, αmax] discretized evenly using nα+1 number points. For each q=1, 2, . . . time window, the coefficient of determination Rq,i^2 was computed for each point αi=αmin+i (αmax−αmin)/nα, i=0, . . . , nα of the discretized search range. Then, the fitted curve for each q=1, 2, . . . time window as Φ (ξ; ? ), with
Subsequently, using Algorithm 1, contiguous segments of successive windows are identified within qε and for each segment the time window q associated with the maximum ? value is reported together with the corresponding parameter ? and maximum frequency rise Δfq.
Nonlinear regression is performed on data points within these time windows using the three-parameter model Ψ(ξ; α, Δf, τ)=Δf Φ(ξ−τ; α) with initial parameters α= ? , Δf=Δfq, and τ=0. Finally,
as time instance, ? as maximum frequency rise and dchirp,q=ln(7+4√{square root over (3)})/αq is reported as duration of a chirp for each q reported time window with parameter estimates αq, ? , τq. Here the formula for chirp duration corresponds to the half prominence of Ψ(ξ; αq, ? , τq).
The experimental design is outlined in FIG. 2. To determine the baseline EOD frequency, the fish's EOD was recorded for 30 min. Then, the fish was transferred into a glass beaker containing either 2.5% urethane (Acros Organics, New Jersey, USA) or 0.02% MS-222 (Western Chemical, Washington, USA), each dissolved in water from the fish's isolation tank. As a control, the fish was moved into an identical glass beaker containing aquarium water only. The temperatures of the anesthetic solutions or the aquarium water in the beaker were similar (±1° C.) to the temperature of the water in the fish's isolation tank.
The fish was left in the anesthetic solution until both anal fin undulation and opercular movement ceased. It was then returned to its isolation tank where recording of the EOD continued for 180 min. For urethane anesthesia, treatment including transfer to and from the beaker took between 4-5 min. MS-222 anesthesia required longer exposure to the anesthetic so that the entire treatment lasted between 9-15 min. Control experiments were designed such that the handling of the fish and the time the fish spent outside its isolation tank were similar to the corresponding anesthesia experiments (urethane control: 5-8 min; MS-222 control: 7-10 min).
The method described in Eske et al. (2023) was employed for the detection of chirps. This method assumes that the frequency shape of chirps normalized by the peak frequency rise is described in time by function
where ξ is the time coordinate measured from the chirp's peak frequency and α is an unknown parameter identified by the chirp detection method (FIG. 2). This function closely matches the shape of type-2 chirps, and, though to a lesser extent, the shape of type-1 chirps. […]

Structure (SMILES) | Time chirp rates remained elevated after anesthesia (0.02% MS-222) [h] | Number of chirps during the 30 min immediately following anesthesia (mean) | Number of chirps during the 30 min immediately following anesthesia (median) [chirps] | Number of chirps during the 30 min immediately following anesthesia (range among fish) | Time T to which type-2 chirping at higher rates persists after exposure (2.5% urethane, single recording (FIG. 20)) [s] | Difference in increase in the number of chirps (30 min before vs 30 min after exposure): Median (eugenol 30 μL/L vs. Control) | Difference in increase in the number of chirps between pairs of eugenol concentrations: Median (eugenol 45 μL/L vs. 30 μL/L) | Difference in increase in the number of chirps (30 min before vs 30 min after exposure): Median (eugenol 45 μL/L vs. Control) | Difference in increase in the number of chirps between pairs of eugenol concentrations: Median (eugenol 60 μL/L vs. 30 μL/L) | Difference in increase in the number of chirps between pairs of eugenol concentrations: Median (eugenol 60 μL/L vs. 45 μL/L) | Difference in increase in the number of chirps (30 min before vs 30 min after exposure): Median (eugenol 60 μL/L vs. Control)
CCOC(=O)c1cccc(N)c1 [MS-222, 3-aminobenzoic acid ethyl ester methanesulfonate] | ≤ 3 | 48 chirps | 30 | 1-156 chirps | – | – | – | – | – | – | –
CCOC(N)=O [urethane] | – | 1852 chirps and 1500 chirps | 1541 | 568-4434 chirps | ~4600 | – | – | – | – | – | –
C=CCc1ccc(O)c(OC)c1 [eugenol] | – | – | – | – | – | 97.5 | 8 | 137 | 60.5 | 23 | 160
